Assay [1] concerns the target Abl kinase (h) (Homo sapiens (Human), UniProt P00519). Description: Cerep kinase profiling, HTRF assay, Abl kinase. The assay is classed as biochemical. The protocol:
The inhibitory activity of the compounds of the chemical series on different protein kinases was evaluated by Cerep (Cerep Kinase Profiling Service; www.cerep.com). The kinases used in the tests in vitro are human recombinant proteins expressed in human cells, insect cells or in bacteria. […] The activity of the kinase was then detected by an HTRF assay. The HTRF assay (CisBio International) is based on fluorescence transfer, using Europium (Eu3+) cryptate and XL665 respectively as donor and acceptor. When the biotinylated or tagged substrate is phosphorylated by the kinase, it reacts with a cryptate-labelled phosphospecific antibody. Addition of Streptavidin-XL665, SA-XL665, (or anti-tag antibody XL665) leads to juxtaposition of the cryptate and of the fluorophore XL665, which is reflected in fluorescence resonance energy transfer (FRET). The intensity of FRET depends on the quantity of cryptate-labelled antibody bound to the substrate, which is proportional to the quantity of phosphorylated substrate (Mathis, G. Probing molecular interactions with homogeneous techniques based on rare earth cryptates and fluorescence energy transfer.

Assay [2] has as its target Src kinase (Homo sapiens (Human), UniProt P12931). As to the kind of experiment: Reaction Biology Corp. kinase assay, Src. As to conditions: compounds tested by Reaction Biology Corp.; for inhibition at 10 µM: read-out: % inhibition of kinase activity, Src (category), 10 μM.
Assay [3] deals with Abl WT (Homo sapiens (Human), UniProt P00519). Description: Reaction Biology Corp. kinase assay, Abl WT. In kind it is biochemical. Particulars: compounds tested by Reaction Biology Corp.; for inhibition at 10 µM: read-out: % inhibition of kinase activity, Abl WT (category). How it is done: (§1) 4 compounds were tested for their capacity to inhibit various mutated kinases AbI (American company, Reaction Biology Corp.).

Assay [4] has as its target Abl T315I (Homo sapiens (Human), UniProt P00519, T315I). Description: Reaction Biology Corp. kinase assay, mutated Abl T315I. Particulars: 10 μM; Reaction Biology Corp.; read-out: % inhibition of kinase activity, Abl T315I (category). In kind it is biochemical. How it is done: as §1
The mark [5] stands for this setting: 10 μM, compounds tested by Cerep, read-out: % inhibition of kinase activity, Abl WT (category).
Where [6] appears, read: Table 6, compound incubated at 10 μM, read-out: Percentage inhibition of kinase Abl.
[7] abbreviates: Table 9, Cerep, 5 concentrations 10^−10 M to 10^−4 M, read-out: IC50 in M Abl.
[8] abbreviates: compounds tested by Cerep, read-out: IC50 on kinase Abl WT (category).

Where two headings read alike, the source gives them in different places.

Sequence of Src kinase (P12931 whole entry, looked up): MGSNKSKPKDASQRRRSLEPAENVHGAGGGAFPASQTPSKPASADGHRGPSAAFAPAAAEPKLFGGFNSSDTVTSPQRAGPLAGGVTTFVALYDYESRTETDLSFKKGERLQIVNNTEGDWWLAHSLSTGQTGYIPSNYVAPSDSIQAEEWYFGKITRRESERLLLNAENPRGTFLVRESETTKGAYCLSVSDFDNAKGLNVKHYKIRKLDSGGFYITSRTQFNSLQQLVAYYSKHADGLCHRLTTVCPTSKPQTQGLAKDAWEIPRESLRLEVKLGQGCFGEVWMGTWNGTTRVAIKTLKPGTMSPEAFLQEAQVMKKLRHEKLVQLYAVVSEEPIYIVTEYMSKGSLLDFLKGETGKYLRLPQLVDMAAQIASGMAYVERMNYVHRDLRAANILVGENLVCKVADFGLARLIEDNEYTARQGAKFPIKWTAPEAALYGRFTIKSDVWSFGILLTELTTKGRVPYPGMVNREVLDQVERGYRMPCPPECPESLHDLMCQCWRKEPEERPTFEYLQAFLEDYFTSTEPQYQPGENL

On to `COc1ccc(OC(=O)c2cc3cc(NC(=O)c4ccccc4)cnc3[nH]2)cc1` [ND0004, 5-(benzamido)-1H-pyrrolo[2,3-b]pyridine-2-4-methoxyphenyl carboxylate], for which the inhibition at 10 µM in assay [1] (setting [5]) was 10 to 50%; in assay [1] (setting [6]), 31%.
The corresponding values for `NC(=O)c1cc2cc(NC(=O)c3cccc(F)c3)cnc2[nH]1` [ND0005, 5-(3-Fluorobenzamido)-1H-pyrrolo[2,3-b]pyridine-2-carboxamide] are 10 to 50% and 10%.
On to `O=C(Nc1cnc2[nH]c(C(=O)NCCN3CCOCC3)cc2c1)c1cccc(F)c1` [ND0006, 5-(3-fluorobenzamido)-N-(2-morpholinoethyl)-1H-pyrrolo[2,3-b]pyridine-2-carboxamide], for which the figures for the inhibition at 10 µM in assay [1] (setting [5]) and in assay [1] (setting [6]) were 10 to 50% and 33%, respectively. Moreover, the IC50 in assay [1] (setting [7]) was greater than 100 µM; in assay [1] (setting [8]), greater than 10 µM.
The corresponding values for `O=C(Nc1cnc2[nH]c(C(=O)N3CCOCC3)cc2c1)c1cc([N+](=O)[O-])ccc1F` [ND0010, 5-(2-fluoro-5-nitrobenzamido)-2-morpholinocarbonyl-1H-pyrrolo[2,3-b]pyridine] are less than 10%, 1%, greater than 100 µM and greater than 10 µM.
The corresponding values for `Cc1nc(-c2cccc(C(=O)Nc3cnc4[nH]c(C(=O)NCCCN(C)C)cc4c3)c2)cs1` [ND0011, 5-(3-(2-methylthiazol-4-yl)benzamido)-N-(3-(dimethylamino)propyl)-1H-pyrrolo[2,3-b]pyridine-2-carboxamide] are less than 10%, 6%, greater than 100 µM and greater than 10 µM.
`CN(C)CCCNC(=O)c1cc2cc(NC(=O)c3ccc4nccnc4c3)cnc2[nH]1` [ND0012, N-(2-(3-(dimethylamino)propylcarbamoyl)-1H-pyrrolo[2,3-b]pyridin-5-yl)quinoxaline-6-carboxamide]: the inhibition at 10 µM in assay [1] (setting [5]) is less than 10%; in assay [1] (setting [6]), 8%.
With `O=C(Nc1cnc2[nH]c(CO)cc2c1)c1ccccc1Br` [ND0019, 2-bromo-N-(2-(hydroxymethyl)-1H-pyrrolo[2,3-b]pyridin-5-yl)benzamide], the inhibition at 10 µM is greater than 50% in assay [1] (setting [5]) and 82% in assay [1] (setting [6]).
As for `O=C(Nc1cnc2[nH]c(C[C@H]3CCCO3)cc2c1)c1ccccc1Br` [ND0025], the values for the inhibition at 10 µM in assay [1] (setting [5]) and in assay [1] (setting [6]) were 10 to 50% and 39%, respectively.
For `CC1CCCCC1NCc1cc2cc(NC(=O)c3ccccc3Br)cnc2[nH]1` (stereo not shown) [ND0026], the inhibition at 10 µM in assay [1] (setting [5]) is less than 10%; in assay [1] (setting [6]), 8%.
The corresponding values for `O=C(Nc1cnc2[nH]c(CNc3cccc(Br)c3)cc2c1)c1ccccc1Br` [ND0027] are 10 to 50% and 29%.
In the case of `O=C(Nc1cnc2[nH]c(CNCc3ccccc3)cc2c1)c1ccccc1Br` [ND0028], the figures for the inhibition at 10 µM in assay [1] (setting [5]) and in assay [1] (setting [6]) were 10 to 50% and 14%, respectively.
On to `O=C(Nc1cnc2[nH]c(Cn3ccnc3)cc2c1)c1ccccc1Br` [ND0031], for which the values for the inhibition at 10 µM in assay [1] (setting [5]) and in assay [1] (setting [6]) were greater than 50% and 86%, respectively. Moreover, the concentration for half-maximal inhibition (IC50) in assay [1] (setting [7]) was 4 µM; in assay [1] (setting [8]), 0.1 to 10 µM.
Consider `N#Cc1ccc(NCc2cc3cc(NC(=O)c4ccccc4Br)cnc3[nH]2)cc1` [ND0032], for which the inhibition at 10 µM in assay [1] (setting [5]) is 10 to 50%; in assay [1] (setting [6]), 27%.
As to `O=C(Nc1cnc2[nH]c(CNc3cccc([N+](=O)[O-])c3)cc2c1)c1ccccc1Br` [ND0034], the values for the inhibition at 10 µM in assay [1] (setting [5]) and in assay [1] (setting [6]) were 10 to 50% and 17%, respectively.
In the same order, the values of `N#Cc1ccccc1NCc1cc2cc(NC(=O)c3ccccc3Br)cnc2[nH]1` [ND0036] are 10 to 50% and 47%.
Consider `Cc1cccc(NCc2cc3cc(NC(=O)c4ccccc4Br)cnc3[nH]2)c1` [ND0040], for which the inhibition at 10 µM in assay [1] (setting [5]) is 10 to 50%; in assay [1] (setting [6]) it was 21%.
In the same order, the values of `COc1cccc(NCc2cc3cc(NC(=O)c4ccccc4Br)cnc3[nH]2)c1` [ND0041] are 10 to 50% and 14%.
Take `COC(=O)c1cc2cc(NC(=O)C3CC3)cnc2[nH]1` [ND0044, Methyl 5-(cyclopropanecarboxamido)-1H-pyrrolo [2,3-b]pyridine-2-carboxylate]: the inhibition at 10 µM in assay [1] (setting [5]) was less than 10%; in assay [1] (setting [6]), 6%.
In the same order, the values of `COC(=O)c1cc2cc(NC(=O)C(C)C)cnc2[nH]1` [ND0045, Methyl 5-(isobutyramido)-1H-pyrrolo[2,3-b]pyridine-2-carboxylate] are greater than 50% and 58%.
In the same order, the values of `CCC(=O)Nc1cnc2[nH]c(C(=O)OC)cc2c1` [ND0046, Methyl 5-(propionamido)-1H-pyrrolo[2,3-b]pyridine-2-carboxylate] are 10 to 50% and 49%.
Take `COC(=O)c1cc2cc(NC(=O)c3cccnc3)cnc2[nH]1` [ND0050, Methyl 5-(nicotinamido)-1H-pyrrolo[2,3-b]pyridine-2-carboxylate]: the figures for the inhibition at 10 µM in assay [1] (setting [5]) and in assay [1] (setting [6]) were 10 to 50% and 27%, respectively.
Take `COC(=O)c1cc2cc(NC(=O)c3cccc(C#N)c3)cnc2[nH]1` [ND0051, Methyl 5-(3-cyanobenzamido)-1H-pyrrolo[2,3-b]pyridine-2-carboxylate]: the inhibition at 10 µM was 10 to 50% in assay [1] (setting [5]) and 20% in assay [1] (setting [6]).
In the same order, the values of `COC(=O)c1cc2cc(NC(=O)c3cccc(F)c3)cnc2[nH]1` [ND0053, Methyl 5-(3-fluorobenzamido)-1H-pyrrolo[2,3-b]pyridine-2-carboxylate] are 10 to 50% and 33%.
For `COC(=O)c1cc2cc(NC(=O)c3ccc(-c4csc(C)n4)cc3)cnc2[nH]1` [ND0054, Methyl 5-(4-(2-methylthiazol-4-yl)benzamido)-1H-pyrrolo[2,3-b]pyridine-2-carboxylate], the inhibition at 10 µM is 10 to 50% in assay [1] (setting [5]) and 15% in assay [1] (setting [6]).
As for `COC(=O)c1cc2cc(NCc3ccccc3Br)cnc2[nH]1` [ND0057], the 50% inhibitory concentration (IC50) in assay [2] (IC50 on kinase Src (category), ATP at 10 μM) lay within 0.1 to 10 µM; in assay [3] (ATP at 10 μM, read-out: IC50 on kinase Abl WT (category)) it was 0.1 to 10 µM. The inhibition at 10 µM is greater than 50% in assay [2], greater than 50% in assay [3] and less than 10% in assay [4].
Consider `COC(=O)c1cc2cc(Nc3ccncc3)cnc2[nH]1` [ND0058], for which the figures for the inhibition at 10 µM in assay [2], in assay [3] and in assay [4] were 10 to 50%, 10 to 50% and less than 10%, respectively.
As to `COC(=O)c1cc2cc(NC(=O)c3ccccc3Oc3ccccc3)cnc2[nH]1` [ND0059, Methyl 5-(2-phenoxybenzamido)-1H-pyrrolo[2,3-b]pyridine-2-carboxylate], the inhibition at 10 µM in assay [1] (setting [5]) is less than 10%; in assay [1] (setting [6]) it was 5%.
Consider `CCCSc1ncccc1C(=O)Nc1cnc2[nH]c(C(=O)OC)cc2c1` [ND0060, Methyl 5-(2-(propylthio)pyridine-3-carboxamido)-1H-pyrrolo[2,3-b]pyridine-2-carboxylate], for which the inhibition at 10 µM was 10 to 50% in assay [1] (setting [5]) and 16% in assay [1] (setting [6]).
The corresponding values for `COC(=O)c1cc2cc(NC(=O)c3cccc(F)c3F)cnc2[nH]1` [ND0061, Methyl 5-(2,3-difluorobenzamido)-1H-pyrrolo[2,3-b]pyridine-2-carboxylate] are 10 to 50% and 46%.
With `COC(=O)c1cc2cc(NC(=O)c3cccc4c3OCC4)cnc2[nH]1` [ND0062, Methyl 5-(2,3-dihydrobenzofuran-7-carboxamido)-1H-pyrrolo[2,3-b]pyridine-2-carboxylate], the inhibition at 10 µM in assay [1] (setting [5]) is less than 10%; in assay [1] (setting [6]) it was 6%.
Turning to `COC(=O)c1cc2cc(NC(=O)c3ccccc3OC)cnc2[nH]1` [ND0073, Methyl 5-(2-methoxybenzamido)-1H-pyrrolo[2,3-b]pyridine-2-carboxylate], the inhibition at 10 µM in assay [2] was 10 to 50%; in assay [3], 10 to 50%; in assay [4], less than 10%.
`COC(=O)c1cc2cc(Nc3cccc(OC)c3)cnc2[nH]1` [ND0102]: the inhibition at 10 µM in assay [2] fell in the range of 10 to 50%.
On to `COC(=O)c1cc2cc(Nc3cccc(Br)c3)cnc2[nH]1` [ND0104], for which the inhibition at 10 µM in assay [2] was less than 10%.
On the same count and under the same terms, under `COC(=O)c1cc2cc(Nc3ccc(Br)cc3)cnc2[nH]1` [ND0107] stands 10 to 50%.
The same measure, in the same setting: under `COC(=O)c1cc2cc(Nc3ccc(OC)cc3)cnc2[nH]1` [ND0109] stands 10 to 50%.

The values are drawn from patent US8580815B2, “Derivatives of azaindoles as inhibitors of protein kinases ABL and SRC” (Oribase Pharma, priority 2009, dated 2013).
